Measurements from patent US12329739B2, “Isoflavonoid compounds and methods for the treatment of cancer” (Aardvark Therapeutics, Inc., priority 2010, dated 2025).

How the values were obtained:
[1] = tested on: A2058; assay: MTT proliferation assay, A2058; format: cell-based
Experimental: (§1) Proliferation Assays. IC50 values were determined for each cell line. Cells were seeded in 96-well plates at an appropriate cell density as determined from growth kinetics analysis and cultured for 5 days in the absence and presence of the test compounds. Cell proliferation was assessed after the addition of 20 μl of 3-4,5 dimethylthiazol-2,5-diphenyl tetrazolium bromide (MTT, 5 mg/ml in PBS, Sigma) for 5 hrs at 37° C. according to manufacturer's instructions. IC50 values were calculated from semi-log plots of % of control proliferation on the y-axis against log dose on the x-axis.
(§2) Anti-proliferative Activity of Isoflavonoid Derivatives. IC50 values were determined for each cell line after 120 h of exposure.

[2] = tested on: MM200; assay: MTT proliferation assay, MM200; format: cell-based; conditions: Melanoma, MM200, 120 h of exposure
Experimental: as §1, §2

[3] = tested on: CP70; assay: MTT proliferation assay, CP70; format: cell-based
Experimental: as §1, §2

[4] = tested on: 4405; assay: MTT proliferation assay, 4405; format: cell-based; conditions: Melanoma, 4405, 120 h of exposure
Experimental: as §1, §2

[5] = tested on: DU145; assay: MTT proliferation assay, DU145; format: cell-based; conditions: Homo sapiens, DU-145; Prostate, DU145, 120 h of exposure
Experimental: as §1, §2

[6] = tested on: NCI-H460; assay: MTT proliferation assay, NCI-H460; format: cell-based, human; conditions: Homo sapiens; NSCLC, NCI-H460, 120 h of exposure
Experimental: The human non-small cell lung adenocarcinoma lines NCI-H1299 (CRL-5803), NCI-H460 (HTB-177), NCI-H358 (CRL-5807), NCI-H838 (CRL-5844), the human colorectal adenocarcinoma lines COLO 205 (CCL-222), HCT-15 (CCL-225) and the human gastric cancer cell line NCI-N87 (CRL-5822) were cultured in RPMI 1640 medium containing 2 g/L sodium bicarbonate (Hyclone/Invitrogen) supplemented with 2 mM L-glutamine (Gibco) 1 mM sodium pyruvate (Sigma), 10 mM HEPES (Sigma) and 4500 mg/L glucose (Sigma). The human non-small cell lung adenocarcinoma line NCI-H2126 (CCL-256) was cultured in DMEM:F12(1:1) (Hyclone/Invitrogen) containing 2.5 mM L-glutamine 2.4 g/L sodium bicarbonate supplemented with 5% fetal bovine serum (FBS), an additional 2 mM L-glutamine, 15 mM HEPES, 0.005 mg/ml insulin (Sigma), 0.01 mg/ml transferrin (Sigma), 30 nM sodium selenite (Sigma), 10 nM hydrocortisone (Sigma) and 10 nM beta-estradiol (Sigma). The human colorectal adenocarcinoma line HT-29 (HTB-38) and the human gastric cancer cell lines OE-19 (#96071721) and MKN1 (JCRB0252) were cultured in RPMI 1640 media supplemented with 2 mM L-glutamine.
as §1, §2

[7] = tested on: PC3; assay: MTT proliferation assay, PC3; format: cell-based
Experimental: as §1, §2

[8] = tested on: R-182; assay: MTT proliferation assay, R-182; format: cell-based; conditions: Ovarian, R-182, 120 h of exposure
Excerpt: Tissue culture. The multidrug resistant primary epithelial ovarian cancer cell line R-182 TARA was a gift from Dr. Gil Mor (Yale University, New Haven, CT, USA). This cell line was derived by explant from ovarian tumors and cultured as previously described. All other cell lines were purchased from American Type Culture Collection (ATCC, Manassas, VA, USA) with the exception of MKN1, HuH-7, JHH-1, which were purchased from the Japanese Collection of Research Bioresources (JCRB, Osaka, Japan), and OE19 which was purchased from the European Collection of Cell Cultures (ECACC, Salisbury, UK).
as §1, §2

[9] = tested on: A2780; assay: MTT proliferation assay, A2780; format: cell-based
Experimental: as §1, §2

[10] = tested on: LNCaP; assay: MTT proliferation assay, LNCaP; format: cell-based; conditions: Homo sapiens, Prostate, 120 h of exposure
Experimental: as §1, §2

[11] = tested on: MM2200; assay: MTT proliferation assay, MM2200; format: cell-based; conditions: Table 2, Melanoma, MM2200, 120 hrs of exposure
Experimental: as §1, §2
Activity data is provided is Table 2.

[12] = tested on: SK-Hep-1; assay: MTT proliferation assay, SK-Hep-1; format: cell-based, human; conditions: Homo sapiens, SK-HEP1; Liver, SK-Hep-1, 120 h of exposure
Experimental: (§3) The human hepatocellular carcinoma lines HepG2 (HB-8065), SK-HEP-1 (HTB-52) and the normal human lung fibroblast line IMR-90 (CCL-186) were cultured in Minimum Essential Eagles Medium containing 2 mM L-glutamine, 2.2 g/L sodium bicarbonate, supplemented with 1 mM sodium pyruvate and 0.1 mM non-essential amino acids. The human hepatocellular carcinoma line JHH-1 (JCRB1062) was cultured in Williams E Medium (Invitrogen) containing 2.2 g/L sodium bicarbonate, supplemented with 2 mM L-glutamine. The hepatocellular carcinoma line HuH-7 (JCRB0403) was cultured in DMEM, supplemented with 2 mM L-glutamine.
as §1, §2

[13] = tested on: SKBR-3; assay: MTT proliferation assay, SKBR-3; format: cell-based, human
Experimental: The human colorectal adenocarcinoma line HCT-116 (CCL-247) and the human breast adenocarcinoma line SK-BR-3 (HTB-30) were cultured in McCoy's 5a Medium (Invitrogen) containing 1.5 mM L-glutamine and 2.2 g/L sodium bicarbonate. The human colorectal adenocarcinoma line SW620 (CCL-227) was cultured in Leibovitz's L-15 Medium (Invitrogen) containing 2.05 mM L-glutamine.
as §1, §2

[14] = tested on: HuH-7; assay: MTT proliferation assay, HuH-7; format: cell-based, human; conditions: Homo sapiens; Liver, HuH-7, 120 h of exposure
Experimental: as §3, §1, §2

IC50 [5]: 150 to 500 nM | IC50 [6]: 510 to 1500 nM | IC50 ([7]; Homo sapiens, PC-3, 120 h, Prostate, PC3, 120 h of exposure): 150 to 500 nM | IC50 ([7]; Table 2, Prostate, PC3, 120 hrs of exposure): 150 to 500 nM | IC50 ([9]; Homo sapiens, A2780, 120 h, Ovarian, A2780, 120 h of exposure): 150 to 500 nM | IC50 ([9]; Table 2, Ovarian, A2780, 120 hrs of exposure): 150 to 500 nM | IC50 [10]: 150 to 500 nM | IC50 [12]: 150 to 500 nM | IC50 ([13]; Homo sapiens, SK-BR-3, 120 h, Breast, SKBR-3, 120 h of exposure): ≤ 150 nM | IC50 ([13]; Table 2, Breast, SKBR-3, 120 hrs of exposure): ≤ 150 nM | IC50 [14]: 150 to 500 nM
SMILES: Oc1ccc([C@H]2c3ccc(O)cc3OC[C@H]2c2ccc(O)cc2)cc1 [Compound 31, d-cis-3-(4-hydroxyphenyl)-4-(4-hydroxyphenyl)chroman-7-ol]
IC50 ([1]; Homo sapiens, A2058, 120 h, Melanoma, A2058, 120 h of exposure): ≤ 150 nM | IC50 ([1]; Table 2, Melanoma, A2058, 120 hrs of exposure): ≤ 150 nM | IC50 [2]: 510 to 1500 nM | IC50 ([3]; 120 h, Ovarian, CP70, 120 h of exposure): 510 to 1500 nM | IC50 ([3]; Table 2, Ovarian, CP70, 120 hrs of exposure): 150 to 500 nM | IC50 [4]: 150 to 500 nM | IC50 [8]: ≤ 150 nM | anti-proliferative activity against various cancer cells compared with racemic (compound 32) and l-form (compound 33) ([9]; 120 hrs of exposure, various cancer cells (Table 2)): superior anti-proliferative activity | IC50 [11]: 510 to 1500 nM
